Here are results for six compounds from US20040254129A1, “Use of ethoxylated phytosterols and phytostanols” (priority 2001, published 2004).

Like-named read-outs stand apart in the source and are kept apart here. Marks after values point to notes of the source that are not given here.

Data set [1] in a line: Solubilization of griseofulvin by surfactants (UV absorption spectrometry). The class given is physicochemical. As to the method: For each of the surfactants, four samples with different surfactant concentrations were prepared. The surfactants were dissolved and diluted in pure and filtered water. Griseofulvin was added in excess and the samples were allowed to equilibrate for 4 hours at 45° C. followed by 20 hours at room temperature. The samples were thoroughly shaken during the whole equilibration time. The samples were subsequently centrifuged to remove undissolved griseofulvin. The concentration of dissolved griseofulvin was determined by UV absorption spectrometry. The absorbance was recorded at the wavelength for maximum absorption, λmax=295 nm.
In line with the definition in Example 8, the solubilization capacity becomes [formula]

Data set [2] deals with erythrocytes extracted from dog blood. In words: Determination of the lysis of erythrocytes.
Procedure: (§1) Erythrocytes were extracted from dog blood by a centrifugation—resuspension procedure. The fresh blood was subjected to mild centrifugation at 2000×g for 10 mins. The excessive blood plasma was removed and the so-obtained sediment of erythrocytes was resuspended in normal saline (0.9% NaCl in water). This procedure was repeated twice. The final volume of the erythrocyte suspension was equal to the initial volume of the fresh blood. Surfactant solutions with varying concentration of the surfactant were prepared by dissolving and diluting appropriate amounts of surfactants in 0.9% (w/w) NaCl in water. 100 μl surfactant solution was added to 400 μl erythrocyte suspension. The samples were vigorously agitated for 5 seconds immediately after addition, followed by 20 mins incubation at 37° C. under gentle shaking. The samples were centrifuged for 6 mins at 3000 g and 5° C. The centrifugation separated the samples into sediments of intact erythrocytes and a supernatant. A small fraction of the supernatant was removed and analysed with respect to hemoglobin content. The hemoglobin was allowed to undergo a chemical reaction with H2O2, aminophenazon, and phenol. […] From this concentration, the initial concentration of hemoglobin was calculated. Each determination was carried out for triplicate samples.
(§2) Negative control samples, i.e. samples for the determination of background lysis, were prepared by adding 100 μl normal saline to 400 μl erythrocyte suspension. These samples were treated and analysed in the same way as described above.
(§3) Positive control samples, i.e. samples for the determination of total hemoglobin content, were prepared by diluting the erythrocyte suspension 500 times with distilled water. The dilution caused complete lysis of all erythrocytes, and the concentration of released hemoglobin could be determined as described above.
(§4) The degree of lysis was calculated according to the following expression [formula]
(§5) where % L is the degree of lysis in %, [Hb] the concentration of released hemoglobin in the mixture of erythrocytes and surfactant, [Hb]0 the concentration of released hemoglobin in the negative control (basal hemolysis), and [Hb]tot the total concentration of hemoglobin in the mixtures of erythrocytes and surfactant.
(§6) The degree of lysis was determined as a function of the surfactant concentration in the mixture of erythrocytes and surfactant.
(§7) The activity of each surfactant to cause lysis of erythrocytes is indicated by the position of the lysis curve in the diagram. For a surfactant with low activity, a high concentration is required to obtain a certain degree of lysis. Here, the activity is quantified by considering the concentration at which 10% lysis is obtained. The higher the concentration, the lower the activity.
For data set [3] the test system is unchanged.
Procedure: as §1, §2, §3, §4, §5, §6, §7
Data set [4] concerns fresh blood taken from beagle dog (red blood cells). In words: Determination of hemolysis in fresh blood. In kind it is cell-based. As to conditions: for Hemolytic activity (concentration range at which 5% hemolysis is obtained): surfactant concentration in blood/surfactant mixture, read from hemolysis curves. How it is done:
100 μl surfactant solution was added to 400 μl fresh blood taken from beagle dog. The blood and surfactant mixture was gently agitated for 2-3 seconds immediately after addition, followed by 10 mins incubation at 37° C. under gentle shaking. […] During centrifugation the sample separated into a sediment of red blood cells and a supernatant. […] Each determination was carried out for triplicate samples.
After 30 minutes 400 μl of the so-obtained solution was mixed with 100 μl normal saline. From the resulting solution, a small fraction was removed and analysed with respect to hemoglobin content with a Cobas Bio spectrophotometer.
The degree of hemolysis was calculated according to the following expression [formula]
The position of the hemolysis curve along the concentration axis in such a diagram determines the hemolytic activity. The more hemolytic a surfactant is, the lower concentration is required to obtain a certain degree of hemolysis. In order to quantify the hemolytic activity, the concentration was considered at which 5% hemolysis was obtained. The higher the concentration, the lower the activity. The procedure was repeated at least once for all surfactants.

The conditions of data set [5]: no surfactant; cited from earlier work.
The nature of data set [6]: Solubilization of felodipine by surfactants (14C scintillation detection). The class given is physicochemical. As to conditions: for solubility of felodipine on addition of the surfactant (in words): 0.9% (w/w) NaCl in water. How it is done:
Both ^14C-labelled and non-labelled felodipine were provided by AstraZeneca AB. In order to obtain a molecularly homogeneous mixture of labelled and non-labelled felodipine, both components were dissolved in chloroform. After a clear solution was obtained, the solvent was evaporated. […] The surfactants were dissolved and diluted in 0.9% (w/w) NaCl in water. The felodipine was added in excess and the samples were allowed to equilibrate for over 48 hours in room temperature under thorough shaking. The samples were filtered using 4 mm Durapore filters (0.45 μm, Millipore) to remove undissolved felodipine. […] From each sample 0.5 ml solution was withdrawn and mixed with 3.5 ml scintillation liquid. The concentration of dissolved felodipine was determined by means of scintillation detection using a Beckman LS6500 scintillation counter.
The solubilization capacity of each surfactant with respect to felodipine was determined by considering the slope of the solubilization curves, α. The slope of each curve, α, describes the additional amount of felodipine that can be dissolved in a solution when a small amount of surfactant is added, which is also the definition of the solubilization capacity. [formula]
The solubilization capacity was calculated by fitting a linear expression to the experimental data and extracting the slope, α.

Setting [7] is: surfactant 0.00 mM (no surfactant) in 0.9% (w/w) NaCl.

Consider `OC[C@H]1O[C@H](O[C@H]2[C@H](O)[C@@H](O)[C@H](OCCCCCCC3CCCCC3)O[C@@H]2CO)[C@H](O)[C@@H](O)[C@@H]1O` [Cyclohexyl-hexyl maltoside, cyclohexyl-n-hexyl-β-D-maltopyranoside], for which the “Griseofulvin concentration (solubility of griseofulvin)” value (shortened to “Griseofulvin concentration”) was found to be 0.0234 mM in data set [1] (surfactant 2.804 mM in water), 0.0510 mM in data set [1] (surfactant 5.608 mM in water), 0.1329 mM in data set [1] (surfactant 14.019 mM in water) and 0.2720 mM in data set [1] (surfactant 28.038 mM in water). Also, the “degree of lysis of erythrocytes, % L” value was 0.31% in data set [2] (surfactant 0.20 mM in mixture of erythrocytes and surfactant); 1.96% in data set [2] (surfactant 0.40 mM in mixture of erythrocytes and surfactant); 7.60% in data set [2] (surfactant 0.80 mM in mixture of erythrocytes and surfactant); 9.67% in data set [2] (surfactant 1.00 mM in mixture of erythrocytes and surfactant); 15.11% in data set [2] (surfactant 2.01 mM in mixture of erythrocytes and surfactant); 20.28% in data set [2] (surfactant 2.50 mM in mixture of erythrocytes and surfactant). Moreover, the “Activity of lysis (concentration at which 10% lysis is obtained)” value in data set [2] (surfactant concentration in mixture of erythrocytes and surfactant, read from lysis curves) stood at 1.1 mM.
As for `CCCCCCCCCCCCO[C@@H]1O[C@H](CO)[C@@H](O[C@H]2O[C@H](CO)[C@@H](O)[C@H](O)[C@H]2O)[C@H](O)[C@H]1O` [Dodecyl maltoside, n-dodecyl-β-D-maltopyranoside], the “Griseofulvin concentration” value in data set [1] (surfactant 0.811 mM in water) is listed as 0.0101 mM; in data set [1] (surfactant 1.622 mM in water), 0.0221 mM; in data set [1] (surfactant 4.054 mM in water) it was 0.0582 mM; in data set [1] (surfactant 8.108 mM in water), 0.1157 mM. In addition, in data set [3], the “Activity of lysis (concentration at which 10% lysis is obtained)” value was determined as 0.8 mM. The “degree of hemolysis, % H” value is recorded as 0.456% in data set [4] (surfactant 0.098 mM in blood/surfactant mixture); 1.047% in data set [4] (surfactant 0.196 mM in blood/surfactant mixture); 2.987% in data set [4] (surfactant 0.392 mM in blood/surfactant mixture); 4.772% in data set [4] (surfactant 0.588 mM in blood/surfactant mixture); 7.157% in data set [4] (surfactant 0.784 mM in blood/surfactant mixture); 7.563% in data set [4] (surfactant 0.980 mM in blood/surfactant mixture). The “degree of hemolysis, % H” value in data set [4] (surfactant 1.177 mM in blood/surfactant mixture) was 11.208%. The “Hemolytic activity (concentration range at which 5% hemolysis is obtained)” value in data set [4] came to 0.6 mM.
On to `CCCCCCCCO[C@@H]1O[C@H](CO)[C@@H](O[C@H]2O[C@H](CO)[C@@H](O)[C@H](O)[C@H]2O)[C@H](O)[C@H]1O` [Octyl maltoside, n-octyl-β-D-maltopyranoside], for which the “Griseofulvin concentration” value in data set [1] (surfactant 117.6 mM in water) amounted to 0.3232 mM; in data set [1] (surfactant 235.1 mM in water), 0.4425 mM; in data set [1] (surfactant 587.8 mM in water), 0.4451 mM; in data set [1] (surfactant 1175.7 mM in water), 0.4320 mM.
As for `COC1=CC(=O)C[C@@H](C)[C@]12Oc1c(Cl)c(OC)cc(OC)c1C2=O` [griseofulvin, Griseofulvin], the “solubility of griseofulvin in pure water” value in data set [5] is 0.023 mM.
On to “polyoxyethylene(20) stearyl ether [Brij ® 78]”, for which the “solubility of felodipine on addition of the surfactant (in words)” value in data set [6] is “increased”. The “Felodipine concentration (solubility of felodipine)” value in data set [6] (setting [7]) is on record as <0.07 ^† mM; in data set [6] (surfactant 10.89 mM in 0.9% (w/w) NaCl) it was 2.64 mM; in data set [6] (surfactant 21.79 mM in 0.9% (w/w) NaCl), 5.22 mM; in data set [6] (surfactant 32.68 mM in 0.9% (w/w) NaCl), 7.76 mM; in data set [6] (surfactant 43.57 mM in 0.9% (w/w) NaCl), 10.25 mM. Besides, the “degree of hemolysis, % H” value in data set [4] (surfactant 3.48 mM in blood/surfactant mixture) was determined as 1.09%; in data set [4] (surfactant 3.65 mM in blood/surfactant mixture), 1.97%; in data set [4] (surfactant 3.83 mM in blood/surfactant mixture) it was 2.47%; in data set [4] (surfactant 4.00 mM in blood/surfactant mixture), 3.72%; in data set [4] (surfactant 4.17 mM in blood/surfactant mixture) it was 6.14%; in data set [4] (surfactant 4.35 mM in blood/surfactant mixture), 9.21%. In addition, the “Hemolytic activity (concentration range at which 5% hemolysis is obtained)” value in data set [4] is 4 mM.
Take “polyoxyethylene(23) lauryl ether [Brij ® 35]”: the “solubility of felodipine on addition of the surfactant (in words)” value in data set [6] was “increased”. Moreover, the “Felodipine concentration (solubility of felodipine)” value in data set [6] (setting [7]) is given as <0.07 ^† mM; in data set [6] (surfactant 10.42 mM in 0.9% (w/w) NaCl), 1.7070 mM; in data set [6] (surfactant 20.84 mM in 0.9% (w/w) NaCl), 3.4064 mM; in data set [6] (surfactant 31.26 mM in 0.9% (w/w) NaCl), 5.1085 mM; in data set [6] (surfactant 41.680 mM in 0.9% (w/w) NaCl), 6.8927 mM. The “degree of hemolysis, % H” value in data set [4] (surfactant 8.40 mM in blood/surfactant mixture) is 0.87%; in data set [4] (surfactant 16.80 mM in blood/surfactant mixture), 2.37%; in data set [4] (surfactant 25.20 mM in blood/surfactant mixture), 5.04%; in data set [4] (surfactant 33.60 mM in blood/surfactant mixture) it was 7.44%; in data set [4] (surfactant 42.00 mM in blood/surfactant mixture), 10.85%. For the same compound, the “Hemolytic activity (concentration range at which 5% hemolysis is obtained)” value in data set [4] is on record as 25 mM.
